# In the SangsterLogP compilation:
# Test: method code SF, from DOI: 10.1021/jf00070a034
row,SMILES,logP
1,CCNc1nc(Cl)nc(NC2CCCCC2)n1,3.63
2,CN(C)C(=O)Nc1ccc(Cl)cc1,2.01
3,C=CCNc1nc(Cl)nc(NCC=C)n1,2.75
4,CCNc1nc(Cl)nc(NC2CC2)n1,2.13
5,CC1(NC(=O)Nc2ccccc2)CCCCC1,3.6
6,CCNc1nc(Cl)nc(NC2CCC2)n1,2.77
7,CCNc1nc(Cl)nc(NCC2CC2)n1,2.85

# Second part, the compound after the results:
row,logP,SMILES
1,2.72,O=C(Cc1ccccc1)Nc1ccccc1
2,3.17,O=C(Cc1ccccc1)Nc1ccc([N+](=O)[O-])cc1
3,4.48,CC(C)CNC(=O)Nc1ccc(Cl)c(Cl)c1
4,4.31,CCCC(C)C(=O)Nc1ccc(C)c(Cl)c1 (stereo not drawn)
5,1.26,CNC(=O)Nc1cccc(OC)c1
6,2.83,CN(C)C(=O)Nc1cccc(Cc2ccccc2)c1
7,3.49,C=CC(C)C(=O)Nc1ccc(Cl)c(Cl)c1 (stereo not drawn)
8,3.83,CCCC(C)(C)C(=O)Nc1ccc(Cl)cc1
9,2.55,CCCc1ccc(NC(=O)N(C)C)cc1
10,4.74,CCCCCC(C)Nc1nc(Cl)nc(NCC)n1 (stereo not drawn)
11,3.21,CN(C)C(=O)Nc1cccc(CCc2ccccc2)c1
